The text below walks through data of paper PMC7046148 (Scientific Reports, 2020).

The subject of assay [1] is Gibco hiPSCs. In words: LPM differentiation assay (FOXF1 high content imaging), Gibco hiPSCs. Conditions: Homo sapiens, 48 h, read-out: IC50 (±SEM) in LPM differentiation assay.
Description: (§8) hiPSCs (Gibco or XCL-1 clones) were grown in mTeSR-1 on Matrigel, passaged into small clumps with Versene (4.5 min under normal culture conditions), counted as a single-cell suspension as described above, and seeded as small clumps at approximately 10,000 cells/well (30,000 cells/cm^2, ~15% confluence) in 100 µL mTeSR1 on Matrigel-coated µClear® 96-well plates (Greiner) for 1 d under normal culture conditions. On the day after seeding, the medium was replaced with 100 µL/well of mTeSR-1 (control) or APEL2 + GSKi containing either DMSO or diluted compounds (for a final DMSO concentration of 0.2%). The same conditions were replenished the following day for a total of 2 d of differentiation, and the following day (3 d after seeding), the medium was aspirated, and hiPSCs were fixed in 10% NBF for 15 min at room temperature.
(§9) Immunofluorescence staining was carried out by fixing/permeabilizing cells overnight in blocking buffer containing 3% BSA (Sigma) in DPBS-T, which contains DPBS + Ca^2+//Mg^2+ with 0.3% Triton-X100 (Sigma). Fixed and permeabilized cells were incubated in primary antibodies diluted (as noted in Table 1) in antibody buffer, consisting of 1% BSA in DPBS-T, overnight at 4 °C.
(§10) Cells were washed in blocking buffer for >6 hours at 4 °C and subsequently incubated in secondary antibody diluted in antibody buffer overnight at 4 °C. Secondary antibodies were washed out in antibody buffer for >4 h at 4 °C, and hiPSCs were counterstained with DAPI (Fisher) at 10 µg/mL in DPBS-T for 2 h. hiPSCs were washed in DPBS-T for >2 h at 4 °C, and immediately before imaging, the DPBS-T was replaced with DPBS. […] Chemical dose-response experiments and experiments examining the time-course of marker expression during LPM differentiation were imaged at 10X magnification using the Cellomics ArrayScan or CellInsight Cx7 LZR High Content Screening Platform and HCS Studio Cell Analysis Software (Thermo Fisher). An artificial threshold was uniformly applied to all images to generate the percentage of DAPI+ nuclei that stained positively for FOXF1 or NANOG. Thresholding for FOXF1 and T was performed relative to undiffer-entiated hiPSCs, and thresholding for SALL4 and OCT4 was performed relative to a non-expressing cell type (human primary endothelial cells). Settings for image acquisition and processing were uniformly applied between XCL-1 clones. […] Experiments were repeated in quadruplicate unless otherwise stated, and data are presented as mean ± SEM. Nonlinear regression analysis was performed using the 4-parameter [inhibitor]-vs-response curve fitting algorithm in Prism (GraphPad).
The subject of assay [2] is XCL-1 hiPSC CRBN Mock. Description: LPM differentiation assay (FOXF1 high content imaging), XCL-1 CRBN Mock clone. It is filed as cell-based. The note with it: Homo sapiens, 48 h, % FOXF1+ cells after 2 d in APEL2+GSKi, read-out: IC50 (±SEM) in LPM differentiation assay.
Description: On the day after seeding, the medium was replaced with 100 µL/well of mTeSR-1 (control) or APEL2 + GSKi containing either DMSO or diluted compounds (for a final DMSO concentration of 0.2%). The same conditions were replenished the following day for a total of 2 d of differentiation, and the following day (3 d after seeding), the medium was aspirated, and hiPSCs were fixed in 10% NBF for 15 min at room temperature.
as §9, §10
Assay [3] concerns XCL-1 hiPSC CRBN KO/KI. In words: LPM differentiation assay (FOXF1 high content imaging), XCL-1 CRBN KO/KI clone. The assay is classed as cell-based, human. The note with it: for IC50: Homo sapiens, 48 h, XCL-1 CRBN KO/KI, % FOXF1+ cells after 2 d in APEL2+GSKi, read-out: IC50 (±SEM) in LPM differentiation assay.
Description: On the day after seeding, the medium was replaced with 100 µL/well of mTeSR-1 (control) or APEL2 + GSKi containing either DMSO or diluted compounds (for a final DMSO concentration of 0.2%). The same conditions were replenished the following day for a total of 2 d of differentiation, and the following day (3 d after seeding), the medium was aspirated, and hiPSCs were fixed in 10% NBF for 15 min at room temperature. For time-course experiments, cells were fixed at the specified intervals after the start of LPM differentiation.
as §9
Cells were washed in blocking buffer for >6 hours at 4 °C and subsequently incubated in secondary antibody diluted in antibody buffer overnight at 4 °C. Secondary antibodies were washed out in antibody buffer for >4 h at 4 °C, and hiPSCs were counterstained with DAPI (Fisher) at 10 µg/mL in DPBS-T for 2 h. hiPSCs were washed in DPBS-T for >2 h at 4 °C, and immediately before imaging, the DPBS-T was replaced with DPBS. Initial characterization of LPM differentiation by immunofluorescence was carried out using the A1R confocal microscope (Nikon) equipped with 10X objective, and automated object analysis was carried out using NIS Elements v5 software (Nikon). Chemical dose-response experiments and experiments examining the time-course of marker expression during LPM differentiation were imaged at 10X magnification using the Cellomics ArrayScan or CellInsight Cx7 LZR High Content Screening Platform and HCS Studio Cell Analysis Software (Thermo Fisher). An artificial threshold was uniformly applied to all images to generate the percentage of DAPI+ nuclei that stained positively for FOXF1 or NANOG. Thresholding for FOXF1 and T was performed relative to undiffer-entiated hiPSCs, and thresholding for SALL4 and OCT4 was performed relative to a non-expressing cell type (human primary endothelial cells). Settings for image acquisition and processing were uniformly applied between XCL-1 clones. The capacity of all XCL-1 clones and Gibco hiPSCs to undergo LPM differentiation in the high content format was assessed by FOXF1 and NANOG immunostaining. […] Experiments were repeated in quadruplicate unless otherwise stated, and data are presented as mean ± SEM. Nonlinear regression analysis was performed using the 4-parameter [inhibitor]-vs-response curve fitting algorithm in Prism (GraphPad).
Using CRISPR/Cas9-mediated gene editing, both CRBN alleles were knocked out in XCL-1 hiPSCs cells, followed by the insertion at the AAVS1 locus of a transgene encoding human CRBN with E377V and V388I mutations (clone hereafter referred to as CRBN KO/KI).
In assay [4] the test system is XCL-1 hiPSC CRBN KO/KI. Description: cells. It is filed as cell-based. The note with it: Homo sapiens, 72 h; XCL-1 CRBN KO/KI; 3 d differentiation; read-out: IC50 (±SEM) in SOX17 differentiation assay. As to the method:
(§1) The assay was carried out as previously described with continuous dosing of chemical for 3 total days of differentiation. SOX17 staining and DAPI counter-staining were carried out as described, and assays were imaged via high content imaging. […]
(§2) Supplementary Figure 7. Dose-response characterization of the influence […]
(§3) of XCL-1 clones. High content imaging analysis of XCL-1 hiPSC clones that were differentiated for 3 days in the presence of compound and subsequently stained for SOX17 and counter-stained with DAPI. Untreated DMSO control is omitted. Data represent the mean +/- SEM %SOX17 cells
(§4) (relative to control) from 4 independent experiments. Nonlinear regression […]
(§5) variable slope plotting tool in GraphPad Prism. A-C: Dose-response […]
(§6) in cereblon mock (hollow circles) or CRBN KO/KI (red filled circles) clones. D- […]

Assay [5] concerns XCL-1 hiPSC CRBN Mock. In words: cells. It is filed as cell-based. The note with it: Homo sapiens, 72 h; XCL-1 CRBN Mock; 3 d differentiation; read-out: IC50 (±SEM) in SOX17 differentiation assay. The protocol:
as §1, §2, §3, §4, §5, §6

In assay [6] the test system is XCL-1 hiPSC SALL4 Mock. In words: cells. It is filed as cell-based. The note with it: Homo sapiens, 72 h; XCL-1 SALL4 Mock; 3 d differentiation; read-out: IC50 (±SEM) in SOX17 differentiation assay. As to the method:
as §1, §2, §3, §4, §5, §6

For assay [7], the system named is XCL-1 hiPSC SALL4^G416A. Description: cells. It is filed as cell-based. The note with it: Homo sapiens, 72 h; XCL-1 SALL4^G416A; 3 d differentiation; read-out: IC50 (±SEM) in SOX17 differentiation assay. The protocol:
as §1, §2, §3, §4, §5, §6

Assay [8] deals with T1, SALL4 (Homo sapiens, UniProt Q96SW2+Q9UJQ4).
T1 construct: Unmodified Gibco hiPSCs were either differentiated in APEL2 + GSKi or maintained in mTeSR1, and SALL4 nuclear protein expression was monitored; endogenous in cells; host or cells: Gibco hiPSCs; XCL-1 SALL4 mock hiPSC clone
In words: SALL4 nuclear protein expression (MFI) by high content imaging, Gibco hiPSCs. It is filed as cell-based. An excerpt:
(§7) High content imaging analysis of SALL4 immunofluorescence with DAPI counterstaining in hiPSCs. […] Data represent the mean +/− SEM from 2 independent experiments.

Assay [9] concerns the target T1, SALL4. In words: SALL4 MFI by high content imaging, XCL-1 SALL4 mock hiPSCs. The assay is classed as cell-based. The note with it: SALL4 mock control hiPSCs, 8 h of treatment.
Excerpt: as §7

Assay [10] has as its target T2, SALL4^G416A (Homo sapiens, UniProt Q9UJQ4, G416A).
T2 construct: parental hiPSCs were engineered to express a homozygous G416A mutation in the endogenous SALL4 locus; endogenous in cells; host or cells: XCL-1 SALL4^G416A hiPSC clone (1E6), CRISPR/Cas9 knock-in at the endogenous locus
Description: SALL4 MFI by high content imaging, XCL-1 SALL4^G416A hiPSCs. The note with it: SALL4^G416A hiPSC clone, 8 h of treatment. The assay is classed as cell-based.
Excerpt: as §7

Assay [11] addresses T3, human SALL4 (Homo sapiens, UniProt Q9UJQ4).
T3 construct: expressed in transfected cells; host or cells: Lenti-x 293 CRBN CRISPR KO (CRBN-/-) cells stably expressing human SALL4, transiently transfected with FLAG-CRBN variants
Description: Immunoblot of SALL4 degradation in Lenti-x 293 CRBN-/- cells expressing human CRBN variants. The assay is classed as cell-based.
Description: SALL4 were transiently transfected with vectors expressing GFP or human CRBN variants and treated with
CRBN-/- cells transfected with empty vector were used as a negative control. The cells were then lysed and
characterized by immunoblotting analysis for SALL4, ZFP91, GFP, CRBN, and β-actin.
CRBN CRISPR KO (CRBN -/-) cells were maintained in Dulbecco’s Modified Eagle’s medium (DMEM;
Invitrogen) supplemented with 10% fetal bovine serum (FBS; Invitrogen). All cell lines were confirmed
mycoplasma-negative using the MycoAlert Mycoplasma Detection Kit (Lonza).
CRBN-/- cells stably expressing human SALL4 was transiently transfected with 4 µg of pcDNA3-GFP, pcDNA3-
FLAG-CRBN WT (isoform 1),pcDNA3-FLAG-CRBN E377V (isoform 1) or pcDNA3-FLAG-CRBN V388I (isoform
Cells were then harvested and lysed, and
whole cell extract was subjected to immunoblotting analysis. Cells were washed with ice-cold 1X PBS and
lysed in 50mM Tris-HCl [pH 7.6], 150 mM NaCl, 1% Triton X-100, and 1x Complete ULTRA protease inhibitor
cocktail and PhosSTOP phosphatase inhibitor cocktail. Whole cell extracts were collected after
centrifugation at top speed for 10 minutes, resolved by sodium dodecyl sulfate polyacrylamide gel
electrophoresis, transferred onto a nitrocellulose membrane using the Turboblot system (Bio-Rad), and
probed with the indicated primary antibodies. Bound antibodies were detected with IRDye®-680 or -800 […]

In assay [12] the test system is XCL-1 hiPSC SALL4 Mock. Description: LPM differentiation assay (FOXF1 high content imaging), XCL-1 SALL4 Mock clone. Conditions: Homo sapiens, 48 h, read-out: IC50 (±SEM) in LPM differentiation assay.
Description: as §8, §9, §10
The test system of assay [13] is XCL-1 hiPSC SALL4^G416A. Description: LPM differentiation assay (FOXF1 high content imaging), XCL-1 SALL4^G416A clone. Conditions: for IC50: Homo sapiens, 48 h, read-out: IC50 (±SEM) in LPM differentiation assay.
Description: as §8, §9, §10
In addition, XCL-1 hiPSCs were engineered with CRISPR/Cas9 to express a homozygous SALL4 G416A mutation (hereafter referred to as the SALL4^G416A clone), and the homozygous SALL4 G416A mutation was confirmed by next-generation sequencing (Supplementary Fig. 2).

T1 sequence (Q9UJQ4 whole entry): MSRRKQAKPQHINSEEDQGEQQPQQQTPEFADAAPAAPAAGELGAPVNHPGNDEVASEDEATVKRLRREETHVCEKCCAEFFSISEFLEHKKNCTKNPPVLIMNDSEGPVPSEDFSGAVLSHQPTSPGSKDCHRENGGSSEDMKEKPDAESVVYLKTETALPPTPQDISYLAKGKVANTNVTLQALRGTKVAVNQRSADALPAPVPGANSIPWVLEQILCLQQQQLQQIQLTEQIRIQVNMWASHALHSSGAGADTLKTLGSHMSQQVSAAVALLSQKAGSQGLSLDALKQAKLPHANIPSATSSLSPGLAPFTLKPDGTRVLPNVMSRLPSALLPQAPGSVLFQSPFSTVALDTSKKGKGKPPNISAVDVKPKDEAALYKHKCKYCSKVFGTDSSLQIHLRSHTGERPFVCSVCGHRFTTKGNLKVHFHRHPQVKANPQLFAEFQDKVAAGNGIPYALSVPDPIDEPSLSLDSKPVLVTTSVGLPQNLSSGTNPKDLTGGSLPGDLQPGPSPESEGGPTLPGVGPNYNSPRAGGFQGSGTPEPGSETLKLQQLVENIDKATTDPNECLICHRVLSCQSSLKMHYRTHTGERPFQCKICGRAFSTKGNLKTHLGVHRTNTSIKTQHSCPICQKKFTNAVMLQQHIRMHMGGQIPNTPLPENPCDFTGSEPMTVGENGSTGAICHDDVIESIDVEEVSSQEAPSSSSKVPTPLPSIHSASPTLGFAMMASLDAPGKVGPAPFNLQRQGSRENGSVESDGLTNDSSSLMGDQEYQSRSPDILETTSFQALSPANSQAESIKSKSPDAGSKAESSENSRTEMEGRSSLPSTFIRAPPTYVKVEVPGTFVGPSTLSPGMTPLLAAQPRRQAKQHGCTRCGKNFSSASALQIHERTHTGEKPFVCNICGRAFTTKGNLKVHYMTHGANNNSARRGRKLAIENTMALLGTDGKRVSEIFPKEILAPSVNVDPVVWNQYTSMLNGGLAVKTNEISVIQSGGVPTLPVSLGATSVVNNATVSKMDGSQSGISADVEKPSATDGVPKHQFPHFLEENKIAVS
T1 sequence (Q96SW2 whole entry): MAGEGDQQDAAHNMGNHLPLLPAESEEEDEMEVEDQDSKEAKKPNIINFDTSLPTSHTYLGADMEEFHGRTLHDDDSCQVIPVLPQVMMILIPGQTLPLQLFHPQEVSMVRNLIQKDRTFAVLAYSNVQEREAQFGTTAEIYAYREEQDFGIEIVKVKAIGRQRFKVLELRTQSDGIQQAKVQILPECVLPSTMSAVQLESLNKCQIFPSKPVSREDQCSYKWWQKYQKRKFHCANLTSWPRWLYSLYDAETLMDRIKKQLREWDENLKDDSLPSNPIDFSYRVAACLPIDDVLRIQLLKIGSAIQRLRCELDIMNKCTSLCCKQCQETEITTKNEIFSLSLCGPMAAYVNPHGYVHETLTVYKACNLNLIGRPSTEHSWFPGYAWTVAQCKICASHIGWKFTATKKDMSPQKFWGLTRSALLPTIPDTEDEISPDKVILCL
T1 sequence (Q16531 whole entry partner): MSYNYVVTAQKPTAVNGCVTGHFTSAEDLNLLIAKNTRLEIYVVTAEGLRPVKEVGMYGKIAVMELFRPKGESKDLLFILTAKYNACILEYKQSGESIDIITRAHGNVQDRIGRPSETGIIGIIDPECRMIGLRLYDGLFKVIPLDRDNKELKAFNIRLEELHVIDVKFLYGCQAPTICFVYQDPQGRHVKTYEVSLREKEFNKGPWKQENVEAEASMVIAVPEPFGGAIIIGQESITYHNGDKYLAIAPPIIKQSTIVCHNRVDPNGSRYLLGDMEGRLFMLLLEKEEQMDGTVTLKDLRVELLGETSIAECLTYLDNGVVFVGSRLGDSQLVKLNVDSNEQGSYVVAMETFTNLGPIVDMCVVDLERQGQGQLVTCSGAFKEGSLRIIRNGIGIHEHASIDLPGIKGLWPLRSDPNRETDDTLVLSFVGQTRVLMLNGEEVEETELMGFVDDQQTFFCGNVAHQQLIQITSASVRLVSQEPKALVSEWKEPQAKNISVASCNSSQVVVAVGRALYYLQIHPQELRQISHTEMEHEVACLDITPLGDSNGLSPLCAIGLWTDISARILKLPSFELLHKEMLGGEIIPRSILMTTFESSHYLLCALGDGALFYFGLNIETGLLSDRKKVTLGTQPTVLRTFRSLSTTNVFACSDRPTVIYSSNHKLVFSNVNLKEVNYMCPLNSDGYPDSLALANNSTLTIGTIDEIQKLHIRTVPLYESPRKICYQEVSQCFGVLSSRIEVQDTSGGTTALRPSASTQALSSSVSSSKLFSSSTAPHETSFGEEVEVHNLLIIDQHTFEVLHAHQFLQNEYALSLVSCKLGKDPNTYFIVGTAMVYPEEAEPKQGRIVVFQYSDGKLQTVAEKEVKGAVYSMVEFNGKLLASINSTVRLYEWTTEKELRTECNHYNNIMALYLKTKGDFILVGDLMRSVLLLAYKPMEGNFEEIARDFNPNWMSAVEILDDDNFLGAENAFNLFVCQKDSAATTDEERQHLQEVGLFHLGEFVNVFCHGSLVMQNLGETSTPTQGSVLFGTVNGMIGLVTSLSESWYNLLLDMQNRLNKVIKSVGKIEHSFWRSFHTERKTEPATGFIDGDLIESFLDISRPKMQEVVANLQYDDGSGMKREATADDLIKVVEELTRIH
T3 sequence (Q96SW2 whole entry partner): as the sequence (Q96SW2 whole entry) above
T3 sequence (Q16531 whole entry partner): as the sequence (Q16531 whole entry partner) above
T3 sequence (Q9UJQ4 whole entry): as the sequence (Q9UJQ4 whole entry) above
T2 sequence (Q96SW2 whole entry partner): as the sequence (Q96SW2 whole entry) above
T2 sequence (Q16531 whole entry partner): as the sequence (Q16531 whole entry partner) above
T2 sequence (Q9UJQ4 whole entry G416A): as the sequence (Q9UJQ4 whole entry) above, with G416A counted along it

Turning to `Nc1cccc2c1CN(C1CCC(=O)NC1=O)C2=O` (stereo not shown) [Lenalidomide, lenalidomide], in assay [1], the IC50 – broadly, the concentration at which inhibition is half-maximal – is 160 ± 80 nM.

Regarding `Nc1cccc2c1C(=O)N(C1CCC(=O)NC1=O)C2=O` (stereo not shown) [Pomalidomide, pomalidomide], the IC50 in assay [2] is 20 ± 10 nM; in assay [3], above 50000 nM; in assay [4], above 50000 nM; in [5] it was 20 ± 20 nM; in assay [6], 10 ± 10 nM; in assay [7] it was above 50000 nM. Moreover, the IC50 in assay [1] is 10 ± 10 nM; in assay [12], 90 ± 90 nM; in [13] it was above 50000 nM. In addition, the “inhibition of LPM differentiation at the highest concentration tested” value in assay [3] (50 µM, CRBN KO/KI clone) is reported as “inhibited LPM differentiation albeit not to the same magnitude as control hiPSCs”. The “time-course of SALL4 MFI” value in assay [8] (20 µM, Gibco hiPSCs in mTeSR1 or APEL2+GSKi, 2, 8 and 24 h after dosing) is “rapid decline in SALL4 MFI 2 h after dosing”. The “magnitude of the decrease in SALL4 MFI” value in [8] (Gibco hiPSCs, 8 h of treatment, dose-response) was ~ 55%. The “effect on SALL4 MFI” value in assay [9] was “potently reduced SALL4 MFI”; in assay [10], “unchanged”. Further, in [11], the “SALL4 degradation in human cells expressing CRBN with the V388I mutation” value is “failed to induce SALL4 degradation”. Besides, the “inhibition of LPM differentiation at the two highest concentrations tested” value in assay [13] (SALL4^G416A clone) is listed as “modest inhibition of LPM differentiation”.

On to `NC(=O)c1ccc(-c2nc(-c3ccc4c(c3)OCO4)c(-c3ccccn3)[nH]2)cc1` [SB431542], for which the IC50 in assay [2] amounted to 650 ± 180 nM; in [3] it was 790 ± 400 nM; in [1] it was 2760 ± 5580 nM; in [12], 630 ± 170 nM; in assay [13] it was 510 ± 100 nM.
